# In US20200078404A1, “COMBINATION OF A CELL THERAPY AND AN IMMUNOMODULATORY COMPOUND” (Juno Therapeutics, Inc., priority 2017, published 2020):
# Legend:
# [1] = system: anti-CD19 CAR-expressing T cells; test: T cell surface markers of anti-CD19 CAR-expressing T cells incubated with K562.CD19; format: cell-based, human; details: all donors and E:T ratios
# OPM-2-luciferase tumor = test: OPM-2 orthotopic xenograft mouse model, Study 2 (concurrent or delayed lenalidomide); format: in vivo
# Method: In a further study, NOD/Scid/gc^−/− (NSG) mice were injected (i.v.) with OPM-2-luciferase cells as described in Study 1 above and allowed to engraft for 14 days prior to CAR-T (or mock) cell; infusion (i.v.).
# At 14 days after tumor cell injection (day 0), a subtherapeutic dose of CAR+ T cells (1×10^6 CAR-T cells (generated from two different donors)) or mock control cells was injected intravenously. Data are presented as mean±SEM. For in vivo survival, a Gehan-Breslow-Wilcoxon test was used to compare groups.
# FIG. 10E depicts the results of tumor burden assessment through day 60, as analyzed by the bioluminescence […]. […] P values were obtained by likelihood ratio tests comparing the full model with the effect of interest against the model without the effect of interest.
# Blood from the treated mice was collected for CAR-T pharmacokinetic analysis, and cells were stained with antibodies to exclude mouse-specific cells (H2-kd, TER119, and muCD45) and analyzed by flow cytometry. Cells were gated on CD45+CD3+CAR+ and the cells per microliter of blood was determined. For pharmacokinetic measurements, each time point was analyzed by one-way ANOVA and Tukey post-hoc test. FIGS. 10G and 10H show the flow cytometric analysis of mock control cells and CAR-T cells in the blood of the mice at days 8, 14, 22, and 28 following injection of the CAR-T cells from two donors.
# K562-CD19 cells = test: Cytolytic activity of restimulated anti-CD19 CAR+ T cells against K562-CD19 cells; format: cell-based, human; details: 1 μM lenalidomide, 2nd and 4th restimulation
# Method: Cells from each condition were plated in triplicate. Representative cell killing observed at the 2nd and 4th restimulation for both donors is shown in FIG. 18A (as normalized to K562-CD19-Nuc-labeled cells at t=0) or in FIG. 18B (% cell killing compared to vehicle only control (set at 100%)).
# OPM-2 = details: read-out: sensitive to lenalidomide; cited from earlier work
# [2] = system: anti-BCMA CAR T cells with RPMI-8226; test: Cytokine production of anti-BCMA CAR T cells co-cultured with RPMI-8226 with or without lenalidomide; format: cell-based, human
# Excerpt: Culture of T cells not expressing the anti-BCMA CAR (mock) was used as a control.
# anti-BCMA CAR T cells [3] = test: Cytokine production on BCMA/PD-L1 conjugated beads; format: cell-based, human; details: 1 μM lenalidomide, 24 hours
# Method: In another study, to explore whether the lenalidomide-induced potentiation of CAR T activation and cytokine production could override PD-L1-mediated inhibition, cells were cultured in the presence of BCMA beads generated as described in Example 9, with or without additional conjugation of human recombinant PD-L1-Fc. […] Cytokine production was measured in the supernatant.
# anti-BCMA CAR T cells [4] = test: Proliferation and expansion of anti-BCMA CAR T cells stimulated with BCMA-conjugated beads; format: cell-based, human; details: 5 μM lenalidomide
# Method: Cryofrozen anti-BCMA CAR T cells, produced substantially as described in Example 2 and formulated at a 1:1 ratio of CD4+ and CD8+ T cells, were thawed.
# Total cell count, monitored at day 4 (FIG. 21E) and day 7 (FIG. 21F), was increased following stimulation of anti-BCMA CAR+ T cells with beads from a 50 μg/mL BCMA-conjugated bead composition, but not 5 μg/mL BCMA-conjugated bead composition, compared to the cells present at the time of initiation of the incubation (dashed line).
# To further assess proliferation, the cells containing anti-BCMA CAR-expressing T cells were labeled with the proliferation marker dye CELLTRACE VIOLET (CTV; ThermoFisher Scientific, Waltham Mass.) in accordance with the manufacturer's protocol prior to incubation with the BCMA-conjugated beads. Proliferation was assessed by dye dilution using flow cytometry on cells that were stimulated with beads from the 50 μg/mL BCMA-conjugated bead composition.
# Four days and seven days after addition of BCMA-conjugated beads, the incubated cells were stained with CD4 or CD8 and with an anti-EGFR antibody to determine the percentage of cells positive for EGFRt as a surrogate for CAR+ T cells. At the time of plating, 26% of the CD4+ cells expressed anti-BCMA CAR and 39% of the CD8+ cells expressed anti-BCMA CAR as determined by staining with BCMA-Fc. The percent of EGFRt+CD4+ T cells increased from about 26% at the initiation of the incubation to greater than 40% by day 4 (FIG. 21H) and greater than 60% by day 7 (FIG. 21I) when the cells were incubated in the presence of beads from a 50 μg/mL BCMA-conjugated bead composition. […] The extent of cell expansion was greatest when cells were incubated in the presence of beads from a 50 μg/mL BCMA-conjugated bead composition compared to beads from the 5 μg/mL BCMA-conjugated bead composition.
# OPM2-ffluc tumor = test: OPM-2 human multiple myeloma orthotopic xenograft mouse model, Study 1; format: in vivo
# Method: Mice (NOD.Cg-Prkdc^scidIL-2rg^tm1Wjl/SzJ mice (NSG; Jackson Labs)) were injected intravenously (i.v.) with 2×10^6 OPM2 (multiple myeloma) cells transfected with firefly luciferase (OPM2-ffluc). Tumor engraftment was allowed to occur for 13 days prior to staging (14 days before CAR-T cell administration) and verified using bioluminescence imaging.
# Table E1 summarizes the dosing regimens.
# Tumor burden in animals among the various groups was monitored by bioluminescence imaging up to day 39 post-CAR+ T cell dosing. For bioluminescence imaging, mice received intraperitoneal (i.p.) injections of luciferin substrate (CaliperLife Sciences, Hopkinton, Mass.) resuspended in PBS (15 μg/g body weight). The total flux (photon/s) was determined at each time point.
# Table E2 lists median survival (ms) (as assessed at day 56 post-CAR+ T cell administration) and number of mice in group surviving until day 56-post-CAR+ T cell administration, for each animal group assessed in this study.
compound,measurement,setting,value
"Nc1cccc2c1CN(C1CCC(=O)NC1=O)C2=O (stereo not drawn) [lenalidomide, 3-(4-amino-1-oxo-1,3-dihydro-2H-isoindol-2-yl)piperidine-2,6-dione]",expression of CD27,[1],downregulated in a concentration-dependent manner
same,expression of CD45RO,[1],increased
same,tumor growth and tumor burden,"OPM-2-luciferase tumor; added to subtherapeutic CAR+ T cells from both donors, through day 60",slower tumor growth and reduced tumor burden
same,CAR T counts in the peripheral blood,"OPM-2-luciferase tumor; concurrent lenalidomide, after 7 days, not at later time points",increased CAR T counts in the peripheral blood
same,tumor burden,"OPM-2-luciferase tumor; concurrent lenalidomide, donor 1, vs vehicle with anti-BCMA CAR T",significant decrease in tumor burden
same,survival,"OPM-2-luciferase tumor; concurrent lenalidomide, donor 1 and donor 2",increased survival
same,anti-CD19 CAR+ T cell cytolytic activity,K562-CD19 cells,decrease in anti-CD19 CAR+ T cell cytolytic activity
same,IC50,OPM-2,37.4 µM
same,"CAR-dependent cytokine production and/or accumulation (IL-2, IFNγ, TNF-α)","[2]; 10 μM lenalidomide, E:T 0.3:1, 48 hours",increase in CAR-dependent cytokine production and/or accumulation
same,"cytokine production by CAR-expressing T cells (IFN-γ, IL-2, TNF-α)",[2]; three healthy donors and one patient donor,significantly increased across all donors and cytokines
same,"secreted cytokine levels (IFN-γ, IL-2, TNF-α)",anti-BCMA CAR T cells [3],potentiated secreted cytokine levels
same,total cell count (proliferation),"anti-BCMA CAR T cells [4]; 50 ug beads, day 7",small increase in proliferation
same,proliferation by CTV dilution,"anti-BCMA CAR T cells [4]; 50 μg/mL beads, day 4 but not day 7",slight delay in proliferation
same,extent of CAR+ T cell expansion (% EGFRt+),anti-BCMA CAR T cells [4]; day 4 and day 7,did not substantially impact the extent of CAR+ T cell expansion
same,survival effects,"OPM2-ffluc tumor; added to anti-BCMA CAR+ T cells, high and low doses, day −1 or delayed dosing",improved survival effects
same,# animals surviving day 56 post-CART,"OPM2-ffluc tumor; lenalidomide 10 mg/kg i.p. daily from day −1 (A) or day 14 (B), cell dose hi 1.00E+06, low 5.00E+05",0/8
same,Median Survival (assessed at day 6),"OPM2-ffluc tumor; lenalidomide 10 mg/kg i.p. daily from day −1 (A) or day 14 (B), cell dose hi 1.00E+06, low 5.00E+05, listed as lenalidomide (A)",28
same,Median Survival (assessed at day 6),"OPM2-ffluc tumor; lenalidomide 10 mg/kg i.p. daily from day −1 (A) or day 14 (B), cell dose hi 1.00E+06, low 5.00E+05, listed as lenalidomide (B)",25
same,tumor growth or tumor burden,OPM2-ffluc tumor; lenalidomide alone,not observed to reduce tumor growth or tumor burden
same,tumor growth and tumor burden,"OPM2-ffluc tumor; lenalidomide from day 14 added to CAR-T cells, both doses",trend towards slower tumor growth and reduced tumor burden
same,tumor growth and tumor burden (bioluminescence),"OPM2-ffluc tumor; lenalidomide from day −1 added to CAR+ T cells, both doses",slower tumor growth and reduced tumor burden
